What was measured:
[1] = tested on: EGFR; experiment: cDNA PCR analysis of exon skipping / full-size transcript in EGFR; type: cell-based, Human; details: intron-targeting gRNA paired with L858R targeting CRISPR, compared to L858R targeting CRISPR alone
Experimental: After CRISPR reactions, total RNA was prepared, and cDNA synthesized for PCR amplification of the target region from EGFR. PCR-amplified DNA was then analyzed by electrophoresis through a 1% agarose gel for 75 minutes at 80v. DNA was stained with SYBR Safe. Lanes 1 and 13: NEB 2 Log Ladder; Lane 2: Scrambled gRNA; Lane 3: EGFR 21-22 SureKill gRNA 11 alone; Lane 4: EGFR 21-22 SureKill gRNA 13 alone; Lane 5: EGFR 21-22 SureKill gRNA 16 alone; Lane 6: EGFR 21-22 SureKill gRNA 17 alone; Lane 7: EGFR 21-22 SureKill gRNA 19 alone; Lane 8: EGFR 21-22 SureKill gRNA 22 alone; Lane 9: EGFR 21-22 SureKill gRNA 23 alone; Lane 10: EGFR 21-22 SureKill gRNA 27 alone; Lane 11: EGFR 21-22 SureKill gRNA 28 alone; Lane 12: EGFR 21-22 SureKill gRNA 29 alone. On the left side of the image are markers indicating DNA size in bp.
After CRISPR reactions, total RNA was prepared, and cDNA synthesized for semi-quantitative PCR amplification of the target region from EGFR. PCR amplification was performed for 25 cycles. PCR-amplified DNA was then analyzed by electrophoresis through a 1% agarose gel for 75 minutes at 80v. DNA was stained with SYBR Safe. […]
Transfections were carried out using the Lonza Nuclefector 4d. […] RNPs were complexed at 250:50 pmol for 30 minutes prior to transfection, during which time cells were harvested and counted. […]

[2] = tested on: EGFR gene; experiment: Screening of SureKill guide RNAs in the EGFR gene for ability to induce indels; type: cell-based; details: transfections of individual guide RNAs (spCas9 RNP); PDMR human lung adenocarcinoma cells with EGFR L858R; DECODR
Experimental: Human lung squamous cell carcinoma NCI-H1703 clone 44-25 cells were derived from NCI-H1703 cells (#CRL-5889) which were purchased from ATCC (Manassas, VA, USA). NCI-H1703 clone 44-25 cells contains R34G mutation (C 4 G) in NFE2L2 gene. H1703 clone 44-25 cells were cultured in ATCC formulation RPMI-1640 with 10% FBS. T75 flasks were used and cells were split 1:5 upon reaching 90% confluency. Human lung adenocarcinoma cells (Dist. Lot. No. LG0703-F948-PDC) were acquired from the National Institute of Health's National Cancer Institute's Patient-Derived Models Repository (PDMR). This PDMR cell line contains the L858R mutation (T 4 G) in the EGFR gene. The PDMR cells were maintained in Advanced DMEM/F12 media containing 10% FBS, 0.4 μg/mL hydrocortisone, 0.01 μg/mL EGF Recombinant Human Protein, 24 μg/mL adenine, and 2 mM L-Glutamine. T75s were used and cells were split 1:3 upon reaching 90% confluency. All cultures were maintained in cell culture incubators at 37° C. and 5% CO2.
Ribonucleoproteins (RNP) are complexed by incubating 250 pmol of purified synthetic gRNA (Synthego Corporation, Redwood City, CA) with 50 pmol of purified spCas9 (Synthego Corporation, Redwood City, CA) at room temperature in nuclease-free 1× TE buffer for 15 minutes.
Transfections were carried out using the Lonza Nuclefector 4d. Cultures in t75s at 90% confluence were split 1:2 24 hours prior to transfection. RNPs were complexed at 250:50 pmol for 30 minutes prior to transfection, during which time cells were harvested and counted. All reactions were 100 μL and contained 1 e6 cells. Lonza SF solution and Nucleofector program CM-130 were used in all transfections of the H1703 cell line. Lonza SE solution and Nucleofector program CA-137 were used in all transfections of the PDMR. After transfection, 500 μL of media that had been equilibrated to cell culture CO2 and temperature conditions was added to each 100 μL cuvettes. Cuvettes were then placed in the incubator. After 20 minutes, the entire content of each cuvette was seeded into 3 mL of media in a 6 well plate. After 72 hours, samples were dissociated using 200 μL Trypsin 0.25% for 5 minutes. 800 μL culture media was used to quench and split into 1.5 mL tubes each containing 500 μL of the sample. Tubes were spun at 300×g for 5 minutes. One of the tubes was placed in the −20° C. freezer and the other was resuspended in 500 μL of Trizol for RNA extraction and cDNA synthesis.
All sequencing was performed on the Applied Biosystems SeqStudio. The BigDye Terminator v3.1 Cycle Sequencing Kit was used to prepare samples for sequencing. Resulting sequences were analyzed with DECODR to determine indel rates (Bloh et al., CRISPR J. 4:120-31 (2021)).
Human EGFR is a frequently mutated gene that is associated with cancers. One of the most common mutations is L858R which results in the creation of a novel PAM site, making it a targetable sequence by CRISPR. Like the R34G mutation, the CRISPR designed to target the L858R mutation is not highly efficient on its own. By combining the L858R-targeting CRISPR with another CRISPR of high efficiency in a downstream intronic region, exon skipping can be induced, resulting in a higher efficiency of functional knockout than the L858R targeting CRISPR alone. To find a suitable gRNA to pair with the L858R targeting CRISPR, we selected the intron between exons 21 and 22 (FIG. 6). A series of gRNAs were created in this region and screened for their ability to induce indels, a measure of their activity using DECODR (Bloh et al., CRISPR J. 4:120-31 (2021)) (Table 3).
In Table 3, all sequences are listed from 5′ to 3′. Indel percent, a measure of CRISPR activity, is based on transfections of individual guide RNAs. All guide RNAs, with the exception of L858R, were designed in the intron between exons 21 and 22.

In the case of “EGFR 21-22 SureKill gRNA 28: EGFR intron 21-22 guide RNA GCAGCCTGGTCCCTGGTGTC, SEQ ID NO:51 (listed as DNA, chemistry not given here)”, the “reduction in the full-size transcript (cDNA, semi-quantitative PCR 25 cycles)” value [1] is reported as “enhanced reduction in the full-size transcript” and the indel % [2] is reported as 97.6%.

Source: patent US12171813B2, “Methods of and compositions for reducing gene expression and/or activity” (Christiana Care Gene Editing Institute, Inc., priority 2021, dated 2024)
